Laboratory results taken from patent US20250339399A1, “SUPRAMOLECULAR SELF-ASSEMBLY SYSTEM” (Beijing Creatron Institute of Pharmaceutical Research Co., …, priority 2022, published 2025).
Where two headings read alike, the source gives them in different places.

Key:
[1] = cited from earlier work; for LogP / Sol: natural flavonoids (chalcone, dihydrochalcone class)
[2] = Binary supramolecular self-assembly systems of polymer and target: guest concentration over incubation time (Comparative Example 2); assay type: physicochemical
Procedure: Experiments were conducted according to the steps in Comparative Example 1, and quantitative analysis was carried out using the analytical method for each target to investigate the regulation ability […] stacking.

[3] = cited from earlier work
[4] = Guest molecule concentration after incubation in initial medium without polymer (Comparative Example 1); assay type: physicochemical; conditions: 37° C., pH 4.5 acetate buffer
In short: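 Dissolved guest content measured by HPLC of centrifuged supernatants (37° C., 13000 rpm, 5 min) sampled at 0.5 h, 3 h and 6 h. Incubation was polymer-free at 37° C.±0.5° C. in buffers of pH 2.0-7.4; nominal loading was set by maximum clinical dose.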

[5] = Binary (carrier), ternary and quaternary supramolecular self-assembly systems of polymer, carrier building block and target: guest concentration over incubation time (Examples 1-56); assay type: physicochemical; conditions: 6 h
In short: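 Targets were incubated at 37 °C in pH 2.0–7.4 buffers with 0.5% polymer alone or with carrier building blocks, after 0.5 h sonication for ternary systems, and shaken at 200 rpm. Samples at 0.5–6 h were centrifuged and diluted ≥10-fold, and dissolved target was quantified by HPLC; surfactant was added if needed.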

[6] = parent flavonoid of the class, no unit printed in the heading

O=C(CCc1ccc(O)c(O)c1)c1c(O)cc(O)cc1O[C@@H]1O[C@H](CO)[C@@H](O)[C@H](O)[C@H]1O [3-hydroxyphloretin 2′-glucoside]
LogP ([1]; Table 1 basic information): 0.67
Sol ([1]; Table 1 basic information): 11.65 mg/mL

O=C(CCc1ccc(O)c(O)c1)c1c(O)cc(O)cc1O [3-hydroxyphloretin, 3-(3,4-dihydroxyphenyl)-1-(2,4,6-trihydroxyphenyl)propan-1-one]
Sol ([1]; Table 1 basic information): 8.59 mg/mL

O=C(CCc1ccc(O)c(O)c1)c1c(O)cc(O)c([C@@H]2O[C@H](CO)[C@@H](O)[C@H](O)[C@H]2O)c1O [Aspalathin, 3-(3,4-dihydroxyphenyl)-1-{2,4,6-trihydroxy-3-[3,4,5-trihydroxy-6-(hydroxymethyl)oxo-2-yl]phenyl]propan-1-one]
LogP ([1]; Table 1 basic information): 0.83
Sol ([1]; Table 1 basic information): 36.12 mg/mL

CC1(C)[C@@H](O[C@H]2O[C@H](C(=O)O)[C@@H](O)[C@H](O)[C@H]2O[C@@H]2O[C@H](C(=O)O)[C@@H](O)[C@H](O)[C@H]2O)CC[C@]2(C)[C@H]3C(=O)C=C4[C@@H]5C[C@@](C)(C(=O)O)CC[C@]5(C)CC[C@@]4(C)[C@]3(C)CC[C@@H]12 [Glycyrrhizic acid, glycyrrhizic acid]
Solubility ([1]; pH > 5.0): pH > 5.0: 159 mg/ml

COc1cc(-c2oc3cc(O)cc(O)c3c(=O)c2O)ccc1O [Isorhamnetin]
Intrinsic solubility (value in the class heading) ([1]; parent flavonoid of the class, Table 1 basic information): Isorhamnetin derivatives (0.45 mg/ml)

O=c1c(O)c(-c2ccc(O)cc2)oc2cc(O)cc(O)c12 [Kaempferol, kaempferol]
solubility value given in Table 1 (basic information of natural flavonoids) [1, 6]: Kaempferol (520-18-3) derivatives-0.40

O=c1cc(-c2ccc(O)c(O)c2)oc2cc(O)cc(O)c12 [Luteolin]
solubility value given in Table 1 (basic information of natural flavonoids) [1, 6]: Luteolin (CAS: 491-70-3) derivatives-0.40

O=c1c(O)c(-c2cc(O)c(O)c(O)c2)oc2cc(O)cc(O)c12 [Myricetin]
solubility value given in Table 1 (basic information of natural flavonoids) ([1]; parent flavonoid of the class, value follows the class name): Myricetin (529-44-2) derivatives −3.14 mg/ml

C[C@@H]1O[C@@H](O[C@H]2[C@H](Oc3cc(O)c(C(=O)CCc4ccc(O)cc4)c(O)c3)O[C@H](CO)[C@@H](O)[C@@H]2O)[C@H](O)[C@H](O)[C@H]1O [Naringin dihydrochalcone, naringin dihydrochalcone]
LogP ([1]; Table 1 basic information): 0.90
Sol ([1]; Table 1 basic information): 6.78 mg/mL

C[C@@H]1O[C@@H](O[C@H]2[C@H](Oc3cc(O)c(C(=O)CCc4ccc(O)c(O)c4)c(O)c3)O[C@H](CO)[C@@H](O)[C@@H]2O)[C@H](O)[C@H](O)[C@H]1O [Neoeriocitrin dihydrochalcone, 1-[4-[(2S,3R,4S,5S,6R)-4,5-dihydroxy-6-(hydroxymethyl)-3-[(2S,3R,4R,5R,6S)-3,4,5-trihydroxy-6-methoxy-2-yl]oxy-2-yl]oxy-2,6-dihydroxyphenyl]-3-(3,4-dihydroxyphenyl)propan-1-one]
Sol ([1]; Table 1 basic information): 21.89 mg/mL

COc1ccc(CCC(=O)c2c(O)cc(O[C@@H]3O[C@H](CO)[C@@H](O)[C@H](O)[C@H]3O[C@@H]3O[C@@H](C)[C@H](O)[C@@H](O)[C@H]3O)cc2O)cc1O [Neosperidin dihydrochalcone, neohesperidin dihydrochalcone]
Sol ([1]; Table 1 basic information): 104.87 mg/mL

O=C(CCc1ccc(O)cc1)c1c(O)cc(O)cc1O [Phloretin, 3-(4-hydroxyphenyl)-1-(2,4,6-trihydroxyphenyl)propan-1-one]
Sol ([1]; Table 1 basic information): 3.07 mg/mL

O=C(CCc1ccc(O)cc1)c1c(O)cc(O)cc1O[C@@H]1O[C@H](CO)[C@@H](O)[C@H](O)[C@H]1O [Phloridzin, 1-[2,4-dihydroxy-6-[(2S,3R,4S,5S,6R)-3,4,5-trihydroxy-6-(hydroxymethyl)oxo-2-yl]oxophenyl]-3-(4-hydroxyphenyl)propan-1-one]
Sol ([1]; Table 1 basic information): 3.89 mg/mL

O=c1c(O)c(-c2ccc(O)c(O)c2)oc2cc(O)cc(O)c12 [Quercetin]
Intrinsic solubility ([1]; parent flavonoid of the class, Table 1 basic information, unit not given): Quercetin (CAS 117-39-5) derivatives EUF (Intrinsic solubility: 1.11)

C=C1C[C@@]23CC[C@H]4[C@@](C)(CCC[C@@]4(C)C(=O)O[C@@H]4O[C@H](CO)[C@@H](O)[C@H](O)[C@H]4O)[C@@H]2CC[C@]1(O[C@@H]1O[C@H](CO)[C@@H](O)[C@H](O[C@@H]2O[C@H](CO)[C@@H](O)[C@H](O)[C@H]2O)[C@H]1O[C@@H]1O[C@H](CO)[C@@H](O)[C@H](O)[C@H]1O)C3 [Rebaudioside A]
Intrinsic solubility [1]: Intrinsic solubility: 288.8 mg/ml

C=C1C[C@@]23CC[C@H]4[C@@](C)(CCC[C@@]4(C)C(=O)O)[C@@H]2CC[C@]1(O[C@@H]1O[C@H](CO)[C@@H](O)[C@H](O[C@@H]2O[C@H](CO)[C@@H](O)[C@H](O)[C@H]2O)[C@H]1O[C@@H]1O[C@H](CO)[C@@H](O)[C@H](O)[C@H]1O)C3 [Rebaudioside B, rebaudioside B]
Intrinsic solubility [1]: Intrinsic solubility: 7.98 mg/ml

C=C1C[C@@]23CC[C@H]4[C@@](C)(CCC[C@@]4(C)C(=O)O[C@@H]4O[C@H](CO)[C@@H](O)[C@H](O)[C@H]4O)[C@@H]2CC[C@]1(O[C@@H]1O[C@H](CO)[C@@H](O)[C@H](O[C@@H]2O[C@H](CO)[C@@H](O)[C@H](O)[C@H]2O)[C@H]1O[C@@H]1O[C@@H](C)[C@H](O)[C@@H](O)[C@H]1O)C3 [Rebaudioside C, rebaudioside C]
Intrinsic solubility [1]: Intrinsic solubility: 72.63 mg/ml

C=C1C[C@@]23CC[C@H]4[C@@](C)(CCC[C@@]4(C)C(=O)O[C@@H]4O[C@H](CO)[C@@H](O)[C@H](O)[C@H]4O)[C@@H]2CC[C@]1(O[C@@H]1O[C@H](CO)[C@@H](O)[C@H](O)[C@H]1O)C3 [Rubusoside, rubusoside]
Intrinsic solubility [1]: Intrinsic solubility: 0.39 mg/ml

O=C(CCc1ccc(O)c(O)c1)c1c(O)cc(O[C@@H]2O[C@H](CO)[C@@H](O)[C@H](O)[C@H]2O)cc1O [Sieboldin, 1-(2,6-dihydroxy-4-{[3,4,5-trihydroxy-6-(hydroxymethyl)oxo-2-yl]oxy}phenyl)-3-(3,4-dihydroxyphenyl)propan-1-one]
LogP ([1]; Table 1 basic information): 1.32
Sol ([1]; Table 1 basic information): 11.65 mg/mL

C=CC[C@@H]1/C=C(\C)C[C@H](C)C[C@H](OC)[C@H]2O[C@@](O)(C(=O)C(=O)N3CCCC[C@H]3C(=O)O[C@H](/C(C)=C/[C@@H]3CC[C@@H](O)[C@H](OC)C3)[C@H](C)[C@@H](O)CC1=O)[C@H](C)C[C@@H]2OC [Tacrolimus]
Concentration of the target in the solution measured after different incubation time ([2]; binary system with 0.5% polymer 101, incubation 0.5 h): 224.0 µg/mL
Concentration of the target in the solution measured after different incubation time ([2]; binary system with 0.5% polymer 101, incubation 3 h): 88.8 µg/mL
Concentration of the target in the solution measured after different incubation time ([2]; binary system with 0.5% polymer 101, incubation 6 h): 161.3 µg/mL
Concentration of the target in the solution measured after different incubation time ([2]; binary system with 0.5% polymer 102, incubation 0.5 h): 63.4 µg/mL
Concentration of the target in the solution measured after different incubation time ([2]; binary system with 0.5% polymer 102, incubation 3 h): 60.3 µg/mL
Concentration of the target in the solution measured after different incubation time ([2]; binary system with 0.5% polymer 102, incubation 6 h): 55.7 µg/mL
Concentration of the target in the solution measured after different incubation time ([2]; binary system with 0.5% polymer 103, incubation 0.5 h): 46.8 µg/mL
Concentration of the target in the solution measured after different incubation time ([2]; binary system with 0.5% polymer 103, incubation 3 h): 58.7 µg/mL
Concentration of the target in the solution measured after different incubation time ([2]; binary system with 0.5% polymer 103, incubation 6 h): 6.0 µg/mL
Concentration of the target in the solution measured after different incubation time ([2]; binary system with 0.5% polymer 106, incubation 0.5 h): 78.6 µg/mL
Concentration of the target in the solution measured after different incubation time ([2]; binary system with 0.5% polymer 106, incubation 3 h): 65.2 µg/mL
Concentration of the target in the solution measured after different incubation time ([2]; binary system with 0.5% polymer 106, incubation 6 h): 5.2 µg/mL
Concentration of the target in the solution measured after different incubation time ([2]; binary system with 0.5% polymer 107, incubation 0.5 h): 68.7 µg/mL
Concentration of the target in the solution measured after different incubation time ([2]; binary system with 0.5% polymer 107, incubation 3 h): 62.8 µg/mL
Concentration of the target in the solution measured after different incubation time ([2]; binary system with 0.5% polymer 107, incubation 6 h): 13.2 µg/mL
LogP [3]: LogP 5.59
Concentration of guest molecule measured after different incubated time ([4]; 0.5 h): 77.4 µg/mL
Concentration of guest molecule measured after different incubated time ([4]; 3 h): 8.2 µg/mL
Concentration of guest molecule measured after different incubated time ([4]; 6 h): 17.3 µg/mL
Concentration of guest molecule in solution ([5]; ternary: 0.25% 102H + 307): 161.3 µg/mL
Concentration of guest molecule in solution ([5]; ternary: 0.25% 102H + 308): 219.1 µg/mL
Concentration of guest molecule in solution ([5]; ternary: 0.25% 102H + 320): 328.9 µg/mL
Concentration of guest molecule in solution ([5]; ternary: 0.25% 102H + 321): 337.2 µg/mL
